Measured values: ChEMBL document CHEMBL1649413, “Structure-activity relationship of 4(5)-aryl-2-amino-1H-imidazoles, N1-substituted 2-aminoimidazoles and imidazo[1,2-a]pyrimidinium salts as inhibitors of biofilm formation by Salmonella typhimurium and Pseudomonas aeruginosa” (J Med Chem, 2011)
Active and inactive are the calls of the source. No cut-off for these calls is given here.

What was measured:
Salmonella typhimurium [1] = test: Antimicrobial activity against Salmonella Typhimurium ATCC 14028 assessed as inhibition of planktonic growth at 400 uM at 25 degC after 24 hrs; type: functional, organism-based; conditions: Salmonella enterica subsp. enterica serovar Typhimurium
Pseudomonas aeruginosa [2] = test: Antibiofilm activity in Pseudomonas aeruginosa assessed as inhibition of biofilm formation at 25 degC after 24 hrs; type: functional, organism-based
Salmonella typhimurium [3] = test: Antibiofilm activity in Salmonella Typhimurium ATCC 14028 assessed as inhibition of biofilm formation at 25 degC after 24 hrs; type: functional, organism-based, Salmonella enterica subsp. enterica serovar Typhimurium; conditions: Salmonella enterica, ATCC 14028, 24 h
Pseudomonas aeruginosa [4] = test: Antimicrobial activity against Pseudomonas aeruginosa assessed as inhibition of planktonic growth at 20 uM at 25 degC after 24 hrs; type: functional, organism-based
Pseudomonas aeruginosa [5] = test: Antimicrobial activity against Pseudomonas aeruginosa assessed as inhibition of planktonic growth at 40 uM at 25 degC after 24 hrs; type: functional, organism-based
Salmonella typhimurium [6] = test: Antimicrobial activity against Salmonella Typhimurium ATCC 14028 assessed as inhibition of planktonic growth at 20 uM at 25 degC after 24 hrs; type: functional, organism-based; conditions: Salmonella enterica subsp. enterica serovar Typhimurium
Salmonella typhimurium [7] = test: Antimicrobial activity against Salmonella Typhimurium ATCC 14028 assessed as inhibition of planktonic growth at 10 uM at 25 degC after 24 hrs; type: functional, organism-based; conditions: Salmonella enterica subsp. enterica serovar Typhimurium
Salmonella typhimurium [8] = test: Antimicrobial activity against Salmonella Typhimurium ATCC 14028 assessed as inhibition of planktonic growth at 40 uM at 25 degC after 24 hrs; type: functional, organism-based; conditions: Salmonella enterica subsp. enterica serovar Typhimurium

| Compound | inhibition (Salmonella typhimurium [1]) | IC50 (Pseudomonas aeruginosa [2]) | IC50 (Salmonella typhimurium [3]) | also measured |
| --- | --- | --- | --- | --- |
| CCCCCCCCNc1ncccn1 | inactive |  |  |  |
| CCCCCCNc1ncccn1 | inactive |  |  |  |
| CCCCCCCCCCCCCCn1c(-c2ccc(-c3ccccc3)cc2)cnc1N |  | > 400 µM | > 800 µM |  |
| CCn1c(-c2ccc(F)cc2)cnc1N |  | 67.8 µM | 290 µM |  |
| Cc1ccc(-c2cnc(N)n2C)cc1 |  | 31.7 µM | 62.3 µM |  |
| Nc1ncc(-c2ccc(Cl)cc2)n1C1CC1 |  | 13 µM | 54.8 µM | inhibition (Pseudomonas aeruginosa [4]): inactive |
| c1ccc(CNc2ncccn2)cc1 | inactive |  |  |  |
| N#Cc1ccc(-c2cnc(N)[nH]2)cc1 |  |  | 316 µM |  |
| CCCCNc1ncccn1 | inactive |  |  |  |
| O=[N+]([O-])c1ccc(-c2cn3cccnc3[n+]2Cc2ccccc2)cc1.[O-][Cl+3]([O-])([O-])[O-] |  | > 800 µM | 170 µM |  |
| c1cnc(NC2CCCC2)nc1 | inactive |  |  |  |
| Cc1ccc(-c2cnc(N)[nH]2)cc1 |  | 45.8 µM | 77.7 µM |  |
| Cn1c(-c2ccc([N+](=O)[O-])cc2)cnc1N |  | 69.8 µM | 162 µM |  |
| CC(C)n1c(-c2ccc([N+](=O)[O-])cc2)cnc1N |  | > 800 µM | 360 µM |  |
| c1cnc(NC2CC2)nc1 | inactive |  |  |  |
| CCCCCn1c(-c2ccc(-c3ccccc3)cc2)cnc1N |  | 73.9 µM | 9.2 µM |  |
| CCCCn1c(-c2ccc(Cl)cc2)cnc1N |  | 16.7 µM | 57.8 µM | inhibition (Pseudomonas aeruginosa [4]): inactive; inhibition (Pseudomonas aeruginosa [5]): inactive |
| c1cnc(NC2CCCCCC2)nc1 | inactive |  |  |  |
| CCCCn1c(-c2ccc([N+](=O)[O-])cc2)cnc1N |  | 373 µM | 114 µM |  |
| CCCCCCCCn1c(-c2cccc(Br)c2)cnc1N |  | 40.6 µM | 11.2 µM | inhibition (Salmonella typhimurium [6]): Active; inhibition (Pseudomonas aeruginosa [4]): inactive; inhibition (Pseudomonas aeruginosa [5]): Active; inhibition (Salmonella typhimurium [7]): inactive |
| C#CCN(C)c1ncccn1 | inactive |  |  |  |
| Nc1ncc(-c2ccccc2)n1Cc1ccc2c(c1)OCO2 |  | 104 µM | 97.3 µM |  |
| CCCCCCCC[n+]1c(-c2ccc(S(C)(=O)=O)cc2)cn2cccnc21.[O-][Cl+3]([O-])([O-])[O-] |  | 49.6 µM | 82 µM |  |

| Compound | inhibition (Salmonella typhimurium [1]) | IC50 (Pseudomonas aeruginosa [2]) | IC50 (Salmonella typhimurium [3]) | also measured |
| --- | --- | --- | --- | --- |
| CCn1c(-c2ccccc2)cnc1N |  | 20.7 µM | 206 µM | inhibition (Pseudomonas aeruginosa [4]): inactive; inhibition (Pseudomonas aeruginosa [5]): inactive |
| C[n+]1c(-c2cccc([N+](=O)[O-])c2)cn2cccnc21.[O-][Cl+3]([O-])([O-])[O-] |  | > 800 µM | 427 µM |  |
| CCCCCCn1c(-c2ccc(-c3ccccc3)cc2)cnc1N |  | 32.1 µM | 12.1 µM | inhibition (Salmonella typhimurium [6]): Active; inhibition (Salmonella typhimurium [7]): Active |
| CCCCCCCn1c(-c2ccc(-c3ccccc3)cc2)cnc1N |  | 25.2 µM | 9.3 µM | inhibition (Salmonella typhimurium [6]): Active; inhibition (Pseudomonas aeruginosa [4]): Active; inhibition (Pseudomonas aeruginosa [5]): Active; inhibition (Salmonella typhimurium [7]): inactive |
| Nc1nc(-c2ccccc2)c(-c2ccc(Cl)cc2)[nH]1 |  |  | 46.9 µM |  |
| Nc1ncc(-c2ccc(Cl)cc2)n1Cc1ccccc1 |  | 14.8 µM | 28.5 µM |  |
| Cc1ccc(-c2nc(N)n(-c3ccccc3)c2-c2ccc(Cl)cc2)cc1 |  | > 800 µM | > 400 µM |  |
| CCn1c(-c2ccc([N+](=O)[O-])cc2)cnc1N |  | 126 µM | 286 µM |  |
| CCCCCCCCCCCn1c(-c2ccc(-c3ccccc3)cc2)cnc1N |  | > 400 µM | 60.2 µM |  |
| Cc1ccc(CNc2ncccn2)cc1 | inactive |  |  |  |
| Nc1ncc(-c2ccc(-c3ccccc3)cc2)n1C1CCCCCC1 |  | 6.6 µM | 12.5 µM | inhibition (Salmonella typhimurium [6]): Active; inhibition (Salmonella typhimurium [8]): Active; inhibition (Salmonella typhimurium [7]): Active |
| CCCCCCCCCNc1ncccn1 | inactive |  |  |  |
| CCCNc1ncccn1 | inactive |  |  |  |
| Nc1ncc(-c2ccc(-c3ccccc3)cc2)n1C1CCC1 |  | 24.5 µM | 26.3 µM |  |
| CC(C)[n+]1c(-c2ccc([N+](=O)[O-])cc2)cn2cccnc21.[O-][Cl+3]([O-])([O-])[O-] |  | > 800 µM | > 800 µM |  |
| COc1ccc(-c2[nH]c(N)nc2-c2ccccc2)cc1 |  |  | 77.1 µM |  |
| Nc1nc(-c2ccc(Cl)cc2)c(-c2cc(F)cc(F)c2)[nH]1 |  |  | 71.8 µM |  |
| Cc1cccc(Nc2ncccn2)c1 | inactive |  |  |  |
| CCCCn1c(-c2ccc(Br)cc2)cnc1N |  | 18.7 µM | 16.2 µM |  |
| CCCCCCCNc1ncccn1 | inactive |  |  |  |
| c1cnc(NC2CCC2)nc1 | inactive |  |  |  |
| Nc1ncc(-c2ccc(-c3ccccc3)cc2)n1C1CCCCCCCCCCC1 |  | > 800 µM | > 800 µM |  |
| c1cnc(NCc2ccc3c(c2)OCO3)nc1 | inactive |  |  |  |

| Compound | inhibition (Salmonella typhimurium [1]) | IC50 (Pseudomonas aeruginosa [2]) | IC50 (Salmonella typhimurium [3]) | also measured |
| --- | --- | --- | --- | --- |
| Nc1ncc(-c2ccccc2)n1C1CCCC1 |  | 12.6 µM | 70.7 µM | inhibition (Pseudomonas aeruginosa [4]): inactive |
| Nc1ncc(-c2ccc(F)cc2)n1Cc1ccccc1 |  | 32 µM | 37.3 µM |  |
| CCCCCCCCn1c(-c2ccccc2)cnc1N |  | 18.5 µM | 11.9 µM | inhibition (Salmonella typhimurium [6]): Active; inhibition (Pseudomonas aeruginosa [4]): inactive; inhibition (Pseudomonas aeruginosa [5]): inactive; inhibition (Salmonella typhimurium [7]): inactive |
| c1cnc(NC2CCCCCCC2)nc1 | inactive |  |  |  |
| CCCCCCn1c(-c2ccccc2)cnc1N |  | 19.1 µM | 39.7 µM | inhibition (Pseudomonas aeruginosa [4]): inactive; inhibition (Pseudomonas aeruginosa [5]): inactive |
| C=CCNc1ncccn1 | inactive |  |  |  |
| CC(C)C[n+]1c(-c2ccc([N+](=O)[O-])cc2)cn2cccnc21.[O-][Cl+3]([O-])([O-])[O-] |  | > 800 µM | 405 µM |  |
| CCCC[n+]1c(-c2ccc([N+](=O)[O-])cc2)cn2cccnc21.[O-][Cl+3]([O-])([O-])[O-] |  | > 800 µM | > 400 µM |  |
| CCCCCCCCn1c(-c2ccc(OC)cc2)cnc1N |  | 1.2 µM | 8.5 µM | inhibition (Salmonella typhimurium [6]): Active; inhibition (Pseudomonas aeruginosa [4]): inactive; inhibition (Salmonella typhimurium [7]): inactive |
| O=[N+]([O-])c1ccc(-c2cn3cccnc3[n+]2C2CCCCC2)cc1.[O-][Cl+3]([O-])([O-])[O-] |  | 250 µM | 561 µM |  |
| c1ccc(Nc2ncccn2)cc1 | inactive |  |  |  |
| Cn1c(-c2ccccc2)cnc1N |  | 95.2 µM | 432 µM |  |
| COc1ccc(-c2cnc(N)[nH]2)cc1 |  | 186 µM | 120 µM |  |
| CCCCn1c(-c2ccc(F)cc2)cnc1N |  | 55.7 µM | 56.2 µM |  |
| CCCCCCCCCCCNc1ncccn1 | inactive |  |  |  |
| Cn1c(-c2ccc(Cl)cc2)cnc1N |  | 112 µM | 108 µM |  |
| COc1ccc(Cn2c(-c3ccccc3)cnc2N)cc1OC |  | 159 µM | 156 µM |  |
| CCCCCCCCCCCCNc1ncccn1 | inactive |  |  |  |
| CS(=O)(=O)c1ccc(-c2cnc(N)[nH]2)cc1 |  | > 800 µM | > 800 µM |  |
| COc1cccc(Nc2ncccn2)c1 | inactive |  |  |  |
| Nc1ncc(-c2ccccc2)n1C1CC1 |  | 35 µM | 89.6 µM |  |
| CCCCn1c(-c2ccc(-c3ccccc3)cc2)cnc1N |  | 41.6 µM | 21.1 µM | inhibition (Salmonella typhimurium [6]): Active; inhibition (Salmonella typhimurium [8]): Active |
| CCCCCCCCCCNc1ncccn1 | inactive |  |  |  |

| Compound | inhibition (Salmonella typhimurium [1]) | IC50 (Pseudomonas aeruginosa [2]) | IC50 (Salmonella typhimurium [3]) | also measured |
| --- | --- | --- | --- | --- |
| CC(C)(C)[Si](C)(C)Oc1ccc(CNc2ncccn2)cc1 | inactive |  |  |  |
| Brc1ccccc1Nc1ncccn1 | inactive |  |  |  |
| CCCCCCCCn1c(-c2ccc(-c3ccc(-c4ccccc4)cc3)cc2)cnc1N |  | > 800 µM | 850 µM |  |
| CCCCCCCC[n+]1c(-c2cccc(Br)c2)cn2cccnc21.[O-][Cl+3]([O-])([O-])[O-] |  | 7 µM | 7.3 µM | inhibition (Salmonella typhimurium [6]): Active; inhibition (Pseudomonas aeruginosa [4]): inactive; inhibition (Pseudomonas aeruginosa [5]): Active; inhibition (Salmonella typhimurium [7]): inactive |
| CCCCCNc1ncccn1 | inactive |  |  |  |
| CCCCCCCCn1c(-c2ccc(-c3ccc([N+](=O)[O-])cc3)cc2)cnc1N |  | > 800 µM | 116 µM |  |
| CCn1c(-c2ccc(Br)cc2)cnc1N |  | 60.5 µM | 126 µM |  |
| CCCCCCCCCCCCCCNc1ncccn1 | inactive |  |  |  |
| CCNc1ncccn1 | inactive |  |  |  |
| c1cnc(NC2CCCCCCCCCCC2)nc1 | inactive |  |  |  |
| Cc1ccc(CNc2ncccn2)c(C)c1 | inactive |  |  |  |
| Nc1ncc(-c2ccc(Cl)cc2)n1C1CCCCCCCCCCC1 |  | > 800 µM | 120 µM |  |
| Cn1c(-c2ccc(C#N)cc2)cnc1N |  | 331 µM | > 400 µM |  |
| Nc1ncc(-c2ccccc2)n1Cc1ccccc1 |  | 26.1 µM | 55.1 µM |  |
| CN(C)c1ncccn1 | inactive |  |  |  |
| CCCCCCCCCCCCCNc1ncccn1 | inactive |  |  |  |
| COc1ccc(CCn2c(-c3ccccc3)cnc2N)cc1OC |  | 51.9 µM | 185 µM |  |
| CCCCCCCCCCCCCn1c(-c2ccc(Cl)cc2)cnc1N |  | 33.9 µM | 19.5 µM | inhibition (Salmonella typhimurium [6]): inactive; inhibition (Salmonella typhimurium [8]): inactive |
| c1cnc(NC2CCCCC2)nc1 | inactive |  |  |  |
| Nc1ncc(-c2ccc(Br)cc2)n1Cc1ccccc1 |  | 57.8 µM | 74.2 µM |  |
| Cc1ccc(-c2cnc(N)n2C(C)C)cc1 |  | 240 µM | 203 µM |  |
| COc1ccc(CCNc2ncccn2)cc1 | inactive |  |  |  |
| CC[n+]1c(-c2ccc([N+](=O)[O-])cc2)cn2cccnc21.[O-][Cl+3]([O-])([O-])[O-] |  | > 800 µM | > 800 µM |  |
